Several values for one entry are separate records, joined by “and”; a condition that tells them apart may be missing. Identical values can stand only once. Like-named read-outs stand apart in the source and are kept apart here. Blank lines part the entries; values can stand above or below the compound they belong to.
Tests used:
[1] = human; cited from earlier work
[2] = cited from earlier work
[3] = rat
[4] = tested on: proliferative crypt cells, including stem cells and proliferative progenitor cells; format: in vivo, Sprague-Dawley rats; details: rat, on proliferative crypt cells, fitted to plasma citrulline
[5] = tested on: proliferative cells (the stem cells and proliferative progenitors); assay: Translated and calibrated human system toxicology model; parameters: species or system humans; details: fitted to published villus area data after chemotherapy, value (% RSE)
[6] = rat, fixed to literature value; cited from earlier work
[7] = human; cited from earlier work; remark: listed apart in the source

- Vmax, maximum rate of conversion from irinotecan to SN-38 ([3]; i.p. irinotecan, population TK model estimate): 20.6 nmol/h/kg
- Dmaxp, coefficient for maximum irinotecan loss during absorption ([3]; i.p., population TK model estimate): 430 mg/kg
- ka, absorption rate constant of irinotecan ([3]; i.p., % RSE NA): 10 h⁻¹
SMILES: CCc1c2c(nc3ccc(OC(=O)N4CCC(N5CCCCC5)CC4)cc13)-c1cc3c(c(=O)n1C2)COC(=O)[C@]3(O)CC [Irinotecan]
- k12, rate constant from central to peripheral 1 of irinotecan [1]: 57.8 h⁻¹
- k21, rate constant from peripheral 1 to central of irinotecan [1]: 2.58 h⁻¹
- k31, rate constant from peripheral 2 to central of irinotecan [1]: 0.0812 h⁻¹
- occurrence of ≥grade 3 diarrhea in the BI3W schedule compared with Q3W ([2]; 175 mg/m^2 days 1 and 10 every 3 weeks vs 350 mg/m^2 once every 3 weeks): significantly higher
- efficacy in both dosing regimens (Q3W and BI3W) ([2]; 350 mg/m^2 Q3W vs 175 mg/m^2 BI3W): similar

- CLm, clearance of SN-38 ([3]; after i.p. irinotecan): 7.73 mL/min/kg
- Vm, volume of SN-38 ([3]; after i.p. irinotecan, % RSE NA): 0.01 L/kg
SMILES: CCc1c2c(nc3ccc(O)cc13)-c1cc3c(c(=O)n1C2)COC(=O)[C@]3(O)CC [SN‐38, 7‐ethyl‐10‐hydroxy‐camptothecin]
- kkill, cytotoxic rate by SN-38 [4]: 146 M⁻¹ s⁻¹
- Vm, central volume of SN-38 [1]: 200 L
- kem, elimination rate constant of SN-38 [1]: 2.52 h⁻¹
- mk12, rate constant from central to peripheral 1 of SN-38 [1]: 2.6 h⁻¹
- mk21, rate constant from peripheral 1 to central of SN-38 [1]: 0.0584 h⁻¹
- kkill, cytotoxic rate by SN-38 [5]: 11.0 1/day/μM and 11.0 (0.0328) 1/day/μM

SMILES: NC(=O)NCCC[C@H](N)C(=O)O [citrulline]
- kout, elimination rate constant of plasma citrulline [6]: 8.52 day⁻¹
- kout, elimination rate constant of plasma citrulline [7]: 18.6 day⁻¹
- plasma citrulline half-life [7]: 39 to 68.4 min

— publication PMC6930863 (CPT: Pharmacometrics & Systems Pharmacology, 2019)
